Experimental data: PubChem BioAssay (NCI)
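1) Cells in 96-well plates. 2) Compound, 48 h, 5 concentrations. 3) Linear interpolation between surrounding doses. 4) Unreached endpoint = highest concentration. TGI: total growth inhibition.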

Key:
Test in all cases: NCI-60 cell line screen, 48 h
SK-MEL-5 melanoma = system: SK-MEL-5 melanoma
SK-OV-3 ovarian = system: SK-OV-3 ovarian
SR leukemia = system: SR leukemia
OVCAR-5 ovarian = system: OVCAR-5 ovarian
HS 578T breast = system: HS 578T breast
LOX IMVI melanoma = system: LOX IMVI melanoma
SW-620 colon = system: SW-620 colon
KM12 colon = system: KM12 colon
MCF7 breast = system: MCF7 breast
OVCAR-4 ovarian = system: OVCAR-4 ovarian
UACC-62 melanoma = system: UACC-62 melanoma
HT29 colon = system: HT29 colon
SNB-75 CNS = system: SNB-75 CNS
MDA-MB-231 breast = system: MDA-MB-231 breast
CCRF-CEM leukemia = system: CCRF-CEM leukemia
HCC-2998 colon = system: HCC-2998 colon
UO-31 renal = system: UO-31 renal
TK-10 renal = system: TK-10 renal
PC-3 prostate = system: PC-3 prostate
ACHN renal = system: ACHN renal
SK-MEL-28 melanoma = system: SK-MEL-28 melanoma
IGROV1 ovarian = system: IGROV1 ovarian
786-0 renal = system: 786-0 renal
EKVX NSCLC = system: EKVX NSCLC
BT-549 breast = system: BT-549 breast
NCI-H522 lung = system: NCI-H522 lung
SK-MEL-2 melanoma = system: SK-MEL-2 melanoma
M14 melanoma = system: M14 melanoma
T-47D breast = system: T-47D breast
UACC-257 melanoma = system: UACC-257 melanoma
OVCAR-8 ovarian = system: OVCAR-8 ovarian
A549 NSCLC = system: A549 NSCLC
CAKI-1 renal = system: CAKI-1 renal
NCI/ADR-RES ovarian = system: NCI/ADR-RES ovarian
NCI-H23 lung = system: NCI-H23 lung
HOP-92 NSCLC = system: HOP-92 NSCLC
HCT-116 colon = system: HCT-116 colon
SF-268 CNS = system: SF-268 CNS
SN12C renal = system: SN12C renal
MOLT-4 leukemia = system: MOLT-4 leukemia
RPMI-8226 leukemia = system: RPMI-8226 leukemia
SF-295 CNS = system: SF-295 CNS
SF-539 CNS = system: SF-539 CNS
SNB-19 CNS = system: SNB-19 CNS
MALME-3M melanoma = system: MALME-3M melanoma
HOP-62 NSCLC = system: HOP-62 NSCLC
RXF 393 renal = system: RXF 393 renal
HL-60(TB) leukemia = system: HL-60(TB) leukemia
DU-145 prostate = system: DU-145 prostate
COLO 205 colon = system: COLO 205 colon
U251 CNS = system: U251 CNS
OVCAR-3 ovarian = system: OVCAR-3 ovarian
NCI-H226 lung = system: NCI-H226 lung
HCT-15 colon = system: HCT-15 colon
MDA-MB-435 = system: MDA-MB-435

Measured: TGI

COc1ccc(/C=c2\c(=O)[nH]c3nc4ccccc4c(=O)n23)cc1
> 100 µM: all assays above
